SMILES	logP
c1ccc2sc(NCCCc3cnc[nH]3)nc2c1	2.71
c1ccc2sc(SCCc3cnc[nH]3)nc2c1	3.12
c1ccc(-c2cnc(SCCc3cnc[nH]3)[nH]2)cc1	2.45
O=S(=O)(Cc1ccc(Cl)cc1)NCCCCc1cnc[nH]1	2.23
Clc1ccc2[nH]c(NCCCc3cnc[nH]3)nc2c1	2.49
c1ccc(-c2c[nH]c(CCCc3cnc[nH]3)n2)cc1	2.5
S=C(NC1CCCCC1)N1CCC(c2cnc[nH]2)CC1	2.4
c1ccc2sc(NCCc3c[nH]cn3)nc2c1	2.36
c1ccc2sc(SCCCc3cnc[nH]3)nc2c1	3.24
c1ncc(CCCc2nc(C3CCCCC3)c[nH]2)[nH]1	2.94
Clc1ccc(Cc2noc(CCc3cnc[nH]3)n2)cc1	2.51

Reference: the SangsterLogP compilation
